{
  "source": "ChEMBL document CHEMBL3217632",
  "about": "“Water soluble flavonol prodrugs that protect against ischaemia-reperfusion injury in rat hindlimb and sheep heart” (Medchemcomm, 2011)",
  "key": {"Thoracic aorta [1]": {"tested_on": "Thoracic aorta", "experiment": "Vasorelaxant activity in Sprague-Dawley rat thoracic aorta with intact endothelium assessed as inhibition of Ca2+-induced contraction after 20 mins", "assay_type": "functional, tissue-based", "settings": "for IC50: Rattus norvegicus, Sprague-Dawley, Thoracic aorta, 20 min"}, "[2]": {"experiment": "Aqueous solubility of the compound", "assay_type": "physicochemical", "settings": "water (aqueous)"}, "Thoracic aorta [3]": {"tested_on": "Thoracic aorta", "experiment": "Inhibition of superoxide anion production in Sprague-Dawley rat thoracic aorta with intact endothelium by lucigenin-based chemiluminescence analysis in presence of NADPH", "assay_type": "functional"}, "Thoracic aorta [4]": {"tested_on": "Thoracic aorta", "experiment": "Vasorelaxant activity in Sprague-Dawley rat thoracic aorta with intact endothelium assessed as Ca2+-induced contraction after 20 mins in absence of alkaline phosphatase", "assay_type": "functional, tissue-based"}, "Thoracic aorta [5]": {"tested_on": "Thoracic aorta", "experiment": "Vasorelaxant activity in Sprague-Dawley rat thoracic aorta with intact endothelium assessed as inhibition of Ca2+-induced contraction after 20 mins in presence of alkaline phosphatase", "assay_type": "functional, tissue-based", "settings": "for IC50: Rattus norvegicus, Sprague-Dawley, Thoracic aorta, 20 min"}, "Thoracic aorta [6]": {"tested_on": "Thoracic aorta", "experiment": "Inhibition of superoxide anion production in Sprague-Dawley rat thoracic aorta with intact endothelium by lucigenin-based chemiluminescence analysis in presence of NADPH and alkaline phosphatase", "assay_type": "functional"}, "Rattus norvegicus [7]": {"species": "Rattus norvegicus", "experiment": "Cardiotoxicity in Sprague-Dawley rat hindquarters ischemia/reperfusion model assessed as change in heart rate measured following ischemia/reperfusion by tachometer analysis", "assay_type": "toxicity, organism-based", "settings": "in vivo"}, "Rattus norvegicus [8]": {"tested_on": "Rattus norvegicus", "experiment": "Cardioprotective activity in iv dosed Sprague-Dawley rat hindquarters ischemia/reperfusion model assessed as decrease in circulating LDH level administered as bolus injection 5 mins prior to reperfusion by spectrophotometric analysis", "assay_type": "functional, organism-based"}, "Rattus norvegicus [9]": {"species": "Rattus norvegicus", "experiment": "Cardiotoxicity in Sprague-Dawley rat hindquarters ischemia/reperfusion model assessed as change in mean arterial pressure measured following ischemia/reperfusion", "assay_type": "toxicity, organism-based, Artery", "settings": "in vivo"}, "Ovis aries [10]": {"tested_on": "Ovis aries", "experiment": "Cardioprotective activity in merino sheep ischemia/reperfusion injury model assessed as decrease in infarct size at 6.6 mg/kg, iv administered as bolus dose at 10 mins prior to reperfusion measured 3 hrs post-reperfusion by triphenyltetrazolium chloride staining", "assay_type": "functional, organism-based", "design": "dose 6.6 mg/kg"}, "Plasma": {"tested_on": "Plasma", "experiment": "Prodrug conversion in Sprague-Dawley rat plasma assessed as 3',4'-dihydroxyflavonol formation at 6.6 mg/kg, iv measured within 2 mins of drug administration by LC-MS/MS analysis", "assay_type": "ADME, organism-based", "design": "dose 6.6 mg/kg, route intravenous", "settings": "in vivo"}, "Ovis aries [11]": {"tested_on": "Ovis aries", "experiment": "Cardioprotective activity in merino sheep ischemia/reperfusion injury model assessed as circulating LDH level 6.6 mg/kg, iv administered as bolus dose at 10 mins prior to reperfusion measured 3 hrs post-reperfusion by automated analyzer (reference value: 152 +/-50 U/L)", "assay_type": "functional"}, "Thoracic aorta [12]": {"tested_on": "Thoracic aorta", "experiment": "Inhibition of superoxide anion production in Sprague-Dawley rat thoracic aorta with intact endothelium by lucigenin-based chemiluminescence analysis in presence of NADPH and absence of butyrylcholinesterase", "assay_type": "functional, tissue-based"}, "[13]": {"experiment": "Solubility of the compound in aqueous sodium carbonate", "assay_type": "physicochemical"}, "Thoracic aorta [14]": {"tested_on": "Thoracic aorta", "experiment": "Vasorelaxant activity in Sprague-Dawley rat thoracic aorta with intact endothelium assessed as inhibition of Ca2+-induced contraction pretreated with butyrylcholinesterase for 1 hr", "assay_type": "functional, tissue-based", "settings": "for IC50: Rattus norvegicus, Sprague-Dawley, Thoracic aorta"}, "Thoracic aorta [15]": {"tested_on": "Thoracic aorta", "experiment": "Vasorelaxant activity in Sprague-Dawley rat thoracic aorta with intact endothelium assessed as Ca2+-induced contraction after 20 mins in absence of butyrylcholinesterase", "assay_type": "functional, tissue-based"}, "Thoracic aorta [16]": {"tested_on": "Thoracic aorta", "experiment": "Inhibition of superoxide anion production in Sprague-Dawley rat thoracic aorta with intact endothelium pretreated with butyrylcholinesterase for 1 hr by lucigenin-based chemiluminescence analysis in presence of NADPH", "assay_type": "functional"}, "Ovis aries [17]": {"tested_on": "Ovis aries", "experiment": "Cardioprotective activity in merino sheep ischemia/reperfusion injury model assessed as infarct size at 5 mg/kg, iv administered as 20 mins infusion at 10 mins prior to reperfusion measured 3 hrs post-reperfusion by triphenyltetrazolium chloride staining (reference value: 80 +/-3%)", "assay_type": "functional"}, "Ovis aries [18]": {"tested_on": "Ovis aries", "experiment": "Cardioprotective activity in iv dosed merino sheep ischemia/reperfusion injury model assessed as circulating LDH level measured 2 hrs post-reperfusion (reference value: 604 +/-58 U/L)", "assay_type": "functional"}},
  "note": "Active and inactive are the calls of the source. The rule behind the calls is not given here.",
  "data": [
    {"smiles": "O=c1c(O)c(-c2ccccc2)oc2ccccc12", "note": "[FLAVONOL]", "values": [
      {"measurement": "Rmax", "setting": "Thoracic aorta [1]", "result": 19, "unit": "%"},
      {"measurement": "IC50", "setting": "Thoracic aorta [1]", "result": 4.27, "unit": "µM"},
      {"measurement": "solubility", "setting": "[2]", "result": "< 1", "unit": "mg/mL"},
      {"measurement": "Rmax", "setting": "Thoracic aorta [3]", "result": 20, "unit": "%"}
    ]},
    {"smiles": "O=c1c(OP(=O)([O-])[O-])c(-c2ccccc2)oc2ccccc12.[Na+].[Na+]", "values": [
      {"measurement": "Activity", "setting": "Thoracic aorta [4]", "result": "inactive"},
      {"measurement": "solubility", "setting": "[2]", "result": "> 200", "unit": "mg/mL"},
      {"measurement": "Rmax", "setting": "Thoracic aorta [5]", "result": 40, "unit": "%"},
      {"measurement": "IC50", "setting": "Thoracic aorta [5]", "result": 4.68, "unit": "µM"},
      {"measurement": "Rmax", "setting": "Thoracic aorta [6]", "result": 36, "unit": "%"}
    ]},
    {"smiles": "O=c1c(OP(=O)([O-])[O-])c(-c2ccc(O)cc2)oc2ccccc12.[Na+].[Na+]", "values": [
      {"measurement": "Activity", "setting": "Rattus norvegicus [7]", "result": "Non-toxic"},
      {"measurement": "Activity", "setting": "Rattus norvegicus [8]", "result": "Active"},
      {"measurement": "Activity", "setting": "Thoracic aorta [4]", "result": "inactive"},
      {"measurement": "solubility", "setting": "[2]", "result": "> 200", "unit": "mg/mL"},
      {"measurement": "Rmax", "setting": "Thoracic aorta [5]", "result": 63, "unit": "%"},
      {"measurement": "IC50", "setting": "Thoracic aorta [5]", "result": 3.98, "unit": "µM"},
      {"measurement": "Activity", "setting": "Rattus norvegicus [9]", "result": "Non-toxic"},
      {"measurement": "Activity", "setting": "Ovis aries [10]", "result": "Active"},
      {"measurement": "Rmax", "setting": "Thoracic aorta [6]", "result": 27, "unit": "%"}
    ]},
    {"smiles": "O=C(O)CCCCC(=O)Oc1c(-c2ccc(O)c(O)c2)oc2ccccc2c1=O", "values": [
      {"measurement": "Drug metabolism", "setting": "Plasma", "result": "Active"},
      {"measurement": "Activity", "setting": "Ovis aries [11]", "result": 70, "unit": "U/L"},
      {"measurement": "inhibition", "setting": "Thoracic aorta [12]", "result": "inactive"},
      {"measurement": "Activity", "setting": "Rattus norvegicus [7]", "result": "Non-toxic"},
      {"measurement": "Activity", "setting": "Rattus norvegicus [8]", "result": "Active"},
      {"measurement": "solubility", "setting": "[13]", "result": "> 50", "unit": "mg/mL"},
      {"measurement": "Rmax", "setting": "Thoracic aorta [14]", "result": 76, "unit": "%"},
      {"measurement": "IC50", "setting": "Thoracic aorta [14]", "result": 33.9, "unit": "µM"},
      {"measurement": "Activity", "setting": "Thoracic aorta [15]", "result": "inactive"},
      {"measurement": "Activity", "setting": "Rattus norvegicus [9]", "result": "Non-toxic"},
      {"measurement": "Activity", "setting": "Ovis aries [10]", "result": "Active"},
      {"measurement": "Rmax", "setting": "Thoracic aorta [16]", "result": 70, "unit": "%"}
    ]},
    {"smiles": "O=C(O)CCCCC(=O)Oc1c(-c2ccc(O)cc2)oc2ccccc2c1=O", "values": [
      {"measurement": "inhibition", "setting": "Thoracic aorta [12]", "result": "inactive"},
      {"measurement": "solubility", "setting": "[13]", "result": "> 50", "unit": "mg/mL"},
      {"measurement": "Rmax", "setting": "Thoracic aorta [14]", "result": 70, "unit": "%"},
      {"measurement": "IC50", "setting": "Thoracic aorta [14]", "result": 35.5, "unit": "µM"},
      {"measurement": "Activity", "setting": "Thoracic aorta [15]", "result": "inactive"},
      {"measurement": "Rmax", "setting": "Thoracic aorta [16]", "result": 30, "unit": "%"}
    ]},
    {"smiles": "O=c1c(O)c(-c2ccc(O)cc2)oc2ccccc12", "values": [
      {"measurement": "Rmax", "setting": "Thoracic aorta [1]", "result": 70, "unit": "%"},
      {"measurement": "IC50", "setting": "Thoracic aorta [1]", "result": 11.7, "unit": "µM"},
      {"measurement": "solubility", "setting": "[2]", "result": "< 1", "unit": "mg/mL"},
      {"measurement": "Rmax", "setting": "Thoracic aorta [3]", "result": 62, "unit": "%"}
    ]},
    {"smiles": "O=c1c(O)c(-c2ccc(O)c(O)c2)oc2ccccc12", "values": [
      {"measurement": "Rmax", "setting": "Thoracic aorta [1]", "result": 89, "unit": "%"},
      {"measurement": "IC50", "setting": "Thoracic aorta [1]", "result": 9.55, "unit": "µM"},
      {"measurement": "Activity", "setting": "Rattus norvegicus [7]", "result": "Non-toxic"},
      {"measurement": "Activity", "setting": "Ovis aries [17]", "result": 50, "unit": "%"},
      {"measurement": "Activity", "setting": "Rattus norvegicus [9]", "result": "Non-toxic"},
      {"measurement": "Activity", "setting": "Ovis aries [18]", "result": 405, "unit": "U/L"},
      {"measurement": "Rmax", "setting": "Thoracic aorta [3]", "result": 84, "unit": "%"}
    ]}
  ]
}
